Marks after values point to notes of the source that are not given here.
Legend:
HSV-1 [1] = assay: Virus inhibition, HSV-1 on Vero cells (PrestoBlue); assay type: cell-based, herpes simplex virus type 1 (MacIntyre strain)
Procedure: (§1) Viruses and Quantification. Herpes simplex virus type 1 (HSV-1, MacIntyre strain, ATCC, VR-539) or herpes simplex virus type 2 (HSV-2, ATCC, VR-734) were used in these studies. Virus titer was determined by plaque assay. Briefly, following 2 hour-adsorption of various virus dilutions onto a Vero cell monolayer in a 24-well plate, the medium was removed and cells were overlaid with 1.5% carboxymethylcellulose (Sigma Chemical Company, St. Louis, Mo.) and incubated 48 hours at 37° C. with 5% CO2. After incubation, cells were fixed with methanol, stained with Giemsa (Sigma Chemical Company, St. Louis, Mo.) and plaques were counted. Each virus dilution was prepared in quadruplicate.
(§2) Cytotoxicity and Virus Inhibition. All ginsenosides, isomers, and protopanaxadiols were evaluated for toxic effects on Vero cells prior to anti-viral testing. Cells were seeded at 5000 cells/well in a black 96-well plate with clear bottom in a volume of 100 μL and allowed to attach for 24 hours. The P. ginseng compounds were prepared in DMSO at 100 μM and were taken through serial two-fold dilutions to determine the concentration when the rate of cell death was less than 10% compared to control, untreated cells. Each dilution was tested in three wells and all assays were repeated three times. Following a 48 hour-incubation at 37° C. in 5% CO2, 11 μL of PrestoBlue (Invitrogen, Carlsbad, Calif.) was added to each well and the plate was incubated for an additional 30 minutes. PrestoBlue determines cell viability by changing from blue to red as resazurin is reduced to resorufin by viable cells. Following the PrestoBlue incubation, fluorescence was determined by spectrophotometric reading using Soft Max Pro (Molecular Diagnostics, San Jose, Calif., USA).
(§3) For cytotoxicity testing, 4 μL of dilutions of the ginsenosides or protopanaxadiols were added to 396 μL of medium 199 and 100 μL of this mixture was added to each of three wells. For anti-viral testing, 4 μL of the non-toxic reagent and 4 μL of HSV-1 or HSV-2 diluted to an MOI of 0.1 were added to 392 μL of medium 199 and 100 μL of this mixture was added to each of three wells. Virus inhibition was determined by comparing the cell death of reagent-exposed cells with cell death of control cells only receiving virus. The 50% inhibitory concentration (IC50) was determined through a series of two-fold dilutions and calculation by linear regression analysis.

normal WI 38 cells = conditions: 120 μM; cited from earlier work
HSV-1 [2] = assay: Plaque reduction of HSV-1 on Vero cell monolayer; assay type: cell-based, herpes simplex virus type 1 (MacIntyre strain); conditions: valacyclovir 16 μM, 20(S)-Rg3 50 μM, about 50 PFU/well, 48 hours; for Number of Plaques: ± standard error
Procedure: as §1
The plaque assay procedure also was used to evaluate the percent plaque reduction; the only procedural change was that a constant virus concentration was used (50 plaque forming units (PFU)/well). Plaque reduction was measured by comparing the control (virus only), with valacyclovir (16 μM) with virus or 20(S)-Rg3 (50 μM) with virus. Sample wells were evaluated in quadruplicate. Following the 2 hour-virus adsorption, the methylcellulose-medium containing the same concentrations of valacyclovir or Rg3 was added to the appropriate wells. After 48 hours, plaques were fixed, stained and counted.

Vero cells = assay: Cytotoxicity on Vero cells (PrestoBlue); assay type: cell-based; conditions: for Percent Cell Death: African green monkey, 48 h
Procedure: Cells. Vero cells (American Type Culture Collection (ATCC), Manassas, VA, CCL-81) were maintained in medium 199 (Sigma Chemical Company, St. Louis, MO) that was supplemented with 8% fetal bovine serum (Invitrogen, Carlsbad, CA), 1.25 μg/mL fungizone (Invitrogen, Carlsbad, CA) and penicillin-streptomycin, 1000 U/mL and 1 mg/mL respectively (Sigma Chemical Company, St. Louis, MO). Cells were passed weekly using 0.1% trypsin (Sigma Chemical Company, St. Louis, MO) to detach the cells from the flasks. Cell quantification was done by trypan blue exclusion.
as §2, with “The P. ginseng compounds were prepared in DMSO at 100 μM and were taken through serial two-fold dilutions to determine the concentration when the rate of cell death was less than 10% compared to control, untreated cells.” left out
as §3

HSV-2 = assay: Virus inhibition, HSV-2 on Vero cells (PrestoBlue); assay type: cell-based, herpes simplex virus type 2
Procedure: as §1, §2, §3

HSV-1 [3] = assay: Mouse susceptibility study, lethal HSV-1 infection; assay type: in vivo, BALB/c mice; conditions: for mortality: BALB/c mice, lethal dose HSV-1
Procedure: Mouse Susceptibility Study. BALB/c mice and the HSV-1, MacIntyre strain, ATCC VR-539, were used to determine the effectiveness of the 20(S)-Rg3 ginsenoside in preventing mortality in mice caused by infection of HSV-1. On day 1 of the study, four groups consisting of four mice each were injected intraperitoneally with 800,000 PFU of HSV-1, MacIntyre strain, ATCC VR-539. Three of the groups were treated daily with 1 mg/kg, 3 mg/kg, or 10 mg/kg intraperitoneal injections of the 20(S)-Rg3 ginsenoside and one group in the study received no treatment.

CC(C)=CCC[C@](C)(O)C1CC[C@]2(C)C1[C@H](O)CC1[C@@]3(C)CC[C@H](O[C@@H]4OC(CO)[C@@H](O)[C@@H](O)C4O[C@@H]4OC(CO)[C@@H](O)[C@@H](O)C4O)C(C)(C)C3CC[C@]12C (stereo partly drawn) [20(S)-Rg3, 20(S)-ginsenoside-Rg3]
Percent Inhibition of HSV-1 (HSV-1 [1]; 50 μM, ± standard error): 82.3 ± 3.5%
Percent Inhibition of HSV-1 (HSV-1 [1]; 100 μM, ± standard error): nearly completely inhibited
inhibition at 25 µM (HSV-1 [1]; Human alphaherpesvirus 1, Vero, 25 μM, ± standard error, read-out: Percent Inhibition of HSV-1): 11 ± 2.6%
inhibition at 50 µM (HSV-1 [1]; Human alphaherpesvirus 1, Vero, 50 μM, ± standard error, read-out: Percent Inhibition of HSV-1): 80%
inhibition at 100 µM (HSV-1 [1]; Human alphaherpesvirus 1, Vero, 100 μM, ± standard error, read-out: Percent Inhibition of HSV-1): 90.3 ± 9.9%
IC50 (HSV-1 [1]; Human alphaherpesvirus 1, Vero, two-fold dilutions, linear regression, read-out: IC50 against HSV-1): ~35 µM
effect on normal WI 38 cells (normal WI 38 cells): no effect
Percent Reduction of plaques compared to the control (HSV-1 [2]): 97.3%
Number of Plaques (HSV-1 [2]): 1.5 ± 0.3
Number of Plaques (HSV-1 [2]; listed as Rg3): 1.5±0.3
Percent Cell Death (Vero cells; 50 μM): (13.0 ± 3.1) %
Percent Cell Death (Vero cells; 100 μM): (14.3 ± 4.5) %
Percent Cell Death (Vero cells; 125 μM): (22.3 ± 1.8) %
Percent Cell Death (Vero cells; 250 μM): (28.7 ± 1.4) ^1) %
IC50 (Vero cells; Chlorocebus sabaeus, Vero, read-out: IC50 against the host Vero cells (toxicity)): ~400 µM
Percent Inhibition of HSV-2 (HSV-2; 50 μM, ± standard error): 81.7 ± 10.3%
Percent Inhibition of HSV-2 (HSV-2; 100 μM, ± standard error): nearly completely inhibited
inhibition at 25 µM (HSV-2; Human alphaherpesvirus 2, Vero, 25 μM, ± standard error, read-out: Percent Inhibition of HSV-2): 14.3 ± 3.3%
inhibition at 50 µM (HSV-2; Human alphaherpesvirus 2, Vero, 50 μM, ± standard error, read-out: Percent Inhibition of HSV-2): 80%
inhibition at 100 µM (HSV-2; Human alphaherpesvirus 2, Vero, 100 μM, ± standard error, read-out: Percent Inhibition of HSV-2): 115 ± 6.7%
IC50 (HSV-2; Human alphaherpesvirus 2, Vero, two-fold dilutions, linear regression, read-out: IC50 against HSV-2): ~35 µM
mortality (HSV-1 [3]; 1 mg/kg daily intraperitoneal): 0%
mortality (HSV-1 [3]; 3 mg/kg daily intraperitoneal): 0%
mortality (HSV-1 [3]; 10 mg/kg daily intraperitoneal): 0%
signs of stress (HSV-1 [3]; daily 1 mg/kg, 3 mg/kg or 10 mg/kg groups, duration of the study): never showed any signs of stress

From patent US11980648B2, “Compositions including ginsenoside 20(S)-Rg3 and methods of using ginsenoside 20(S)-Rg3 to inhibit alpha herpesvirus” (MIDDLE TENNESSEE STATE UNIVERSITY, priority 2020, dated 2024)
